By IC50 is commonly meant the midpoint of a concentration-inhibition curve.

Here are results for 37 compounds from US11548888B2, “KRas G12C inhibitors” (Mirati Therapeutics, Inc., priority 2019, dated 2023).

Molecules are shown by their SMILES.

T1 sequence (P01116 1-188 isoform P01116-2 G12C): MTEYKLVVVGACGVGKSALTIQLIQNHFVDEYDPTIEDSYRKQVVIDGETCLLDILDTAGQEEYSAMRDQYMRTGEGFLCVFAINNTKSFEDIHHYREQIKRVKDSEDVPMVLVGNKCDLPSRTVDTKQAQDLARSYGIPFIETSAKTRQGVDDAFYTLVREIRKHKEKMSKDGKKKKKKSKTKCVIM

The assay addresses T1, KRas G12C (Homo sapiens, UniProt P01116, G12C).
T1 construct: NCI-H358 cells (ATCC CRL-5807) express KRas G12C
In words: Inhibition of KRas G12C-dependent cell growth: Phospho-ERK in NCI-H358 cells. It counts as cell-based. Conditions: NCI-H358 cells expressing KRas G12C; Phospho-ERK (Thr202/Tyr204) normalized to GAPDH; 3 hours compound; 4 parameter fit. The method, boiled down:
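NCI-H358 cells (KRas G12C) exposed to compounds for 3 h, 0.5% DMSO final. Fixed cells immunostained for pERK(Thr202/Tyr204) and GAPDH with infrared secondary antibodies. pERK normalized to GAPDH, expressed as percent of DMSO control; IC50 from 4-parameter dose-response fit.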
With `C=C(F)C(=O)N1CCN(c2nc(OC[C@@H]3CCCN3C)nc3c(F)c(-c4cccc5ccccc45)ncc23)C[C@@H]1CC#N` [Example 8, 2-[(2S)-4-[8-fluoro-2-[[(2S)-1-methylpyrrolidin-2-yl]methoxy]-7-(1-naphthyl)pyrido[4,3-d]pyrimidin-4-yl]-1-(2-fluoroprop-2-enoyl)piperazin-2-yl]acetonitrile], the concentration for half-maximal inhibition (IC50) came to 132 nM. The same measure for `C=CC(=O)N1CCN(c2nc(C)nc3c(F)c(-c4cccc5ccc(F)c(Cl)c45)ncc23)C[C@@H]1CC#N` [Example 122]: 32 nM. The result for `C=CC(=O)N1CCN(c2ncnc3c(F)c(-c4cccc5ccc(F)c(Cl)c45)ncc23)C[C@@H]1CC(F)F` [Example 183] reads 10000 nM; that for `C=C(F)C(=O)N1CCN(c2nc(OCC34CCCN3C(CO)CC4)nc3c(F)c(-c4cccc5ccc(F)c(Cl)c45)ncc23)C[C@@H]1CC#N` (stereo partly shown) [Example 216, 2-((2 S)-4-(7-(8-chloro-7-fluoronaphthalen-1-yl)-8-fluoro-2-((3-(hydroxymethyl)tetrahydro-1H-pyrrolizin-7a(5H)-yl)methoxy)pyrido[4,3-d]pyrimidin-4-yl)-1-(2-fluoroacryloyl)piperazin-2-yl)acetonitrile], 121 nM; that for `C=CC(=O)N1CCN(c2nc(OC[C@@H]3CCCN3C)nc3c(F)c(-c4cccc5ccc(F)c(Cl)c45)ncc23)CC1C(F)F` (stereo partly shown) [Example 165], 158 nM. The same measure for `C=CC(=O)N1C[C@@H]2[C@H]1CCN2c1nc(C)nc2c(F)c(-c3cccc4ccc(F)c(Cl)c34)ncc12` [Example 231]: 4280 nM; for `C=C(F)C(=O)N1CCN(c2nc(OC[C@@H]3CC(F)(F)CN3C)nc3c(F)c(-c4cncc5cccc(Cl)c45)ncc23)C[C@@H]1CC#N` [Example 46, 2-((S)-4-(7-(5-chloroisoquinolin-4-yl)-2-(((S)-4,4-difluoro-1-methylpyrrolidin-2-yl)methoxy)-8-fluoropyrido[4,3-d]pyrimidin-4-yl)-1-(2-fluoroacryloyl)piperazin-2-yl)acetonitrile]: 94 nM. With `C=C(F)C(=O)N1CCN(c2nc(OC[C@@H]3CCCN3C)nc3c(F)c(-c4cccc5ccc(Cl)c(Cl)c45)ncc23)C[C@@H]1CC#N` [Example 147], the IC50 is 23 nM.

Regarding `C=CC(=O)N1CCN(c2ncnc3c(F)c(-c4cccc5cccc(Cl)c45)ncc23)C[C@@H]1CC#N` [Example 108], the IC50 worked out at 37 nM. The compound `C=CC(=O)N1CCN(c2nc(OC[C@@H]3CCCN3C)nc3c(F)c(-c4cccc5ccccc45)ncc23)C[C@@H]1CC#N` [Example 7, 2-[(2S)-4-[8-fluoro-2-[[(2S)-1-methylpyrrolidin-2-yl]methoxy]-7-(1-naphthyl)pyrido[4,3-d]pyrimidin-4-yl]-1-prop-2-enoyl-piperazin-2-yl]acetonitrile] showed an IC50 of 7 nM. The result for `C=CC(=O)N1CC[C@@H]2[C@H]1CN2c1nc(OC[C@@H]2CCCN2C)nc2c(F)c(-c3cc(O)cc4cccc(Cl)c34)ncc12` [Example 289, 1-((1R, 5R)-6-(7-(8-chloro-3-hydroxynaphthalen-1-yl)-8-fluoro-2-(((S)-1-methylpyrrolidin-2-yl)methoxy)pyrido[4,3-d]pyrimidin-4-yl)-2,6-diazabicyclo[3.2.0]heptan-2-yl)prop-2-en-1-one] reads 40 nM. The same measure for `C=C(F)C(=O)N1CCN(c2nc(OC[C@@H]3CCN3CC)nc3c(F)c(-c4cccc5ccc(F)c(Cl)c45)ncc23)C[C@@H]1CC#N` [Example 173]: 31 nM. The result for `C=C(F)C(=O)N1CCN(c2nc(OC[C@@H]3C[C@@H](OC)CN3C)nc3c(F)c(-c4cccc5cccc(C)c45)ncc23)C[C@@H]1CC#N` [Example 15, 2-[(2S)-4-[8-fluoro-2-[[(2S,4R)-4-methoxy-1-methyl-pyrrolidin-2-yl]methoxy]-7-(8-methyl-1-naphthyl)pyrido[4,3-d]pyrimidin-4-yl]-1-(2-fluoroprop-2-enoyl)piperazin-2-yl]acetonitrile] reads 50 nM; that for `Cc1cccc2cccc(-c3ncc4c(N5CCN(C(=O)/C=C/CF)[C@@H](CC#N)C5)nc(OC[C@@H]5CC(F)(F)CN5C)nc4c3F)c12` [Example 24, 2-((S)-4-(2-(((S)-4,4-difluoro-1-methylpyrrolidin-2-yl)methoxy)-8-fluoro-7-(8-methylnaphthalen-1-yl)pyrido[4,3-d]pyrimidin-4-yl)-1-((E)-4-fluorobut-2-enoyl)piperazin-2-yl)acetonitrile], 109 nM; that for `C=CC(=O)N1CCN(c2ncnc3c(F)c(-c4c(O)ccc5ccccc45)ncc23)CC1` [Example 225], 4930 nM. Consider `C=CC(=O)N1CCN(c2ncnc3c(F)c(-c4cccc5ccc(F)c(Cl)c45)ncc23)[C@@H](C)C1` [Example 123], for which the IC50 came out at 3960 nM. The same measure for `C=CC(=O)N1CC[C@@H]2[C@H]1CN2c1ncnc2c(F)c(-c3cccc4cccc(C)c34)ncc12` [Example 283]: 2430 nM; for `C=CC(=O)N1CCN(c2ncnc3c(F)c(-c4cccc5cccc(Cl)c45)ncc23)CC1` [Example 137]: 3350 nM. The same measure for `Cc1cccc2cncc(-c3ncc4c(N5CCN(C(=O)/C=C/CF)[C@@H](CC#N)C5)nc(OC[C@@H]5CC(F)(F)CN5C)nc4c3F)c12` [Example 55, 2-((S)-4-(2-(((S)-4,4-difluoro-1-methylpyrrolidin-2-yl)methoxy)-8-fluoro-7-(5-methylisoquinolin-4-yl)pyrido[4,3-d]pyrimidin-4-yl)-1-((E)-4-fluorobut-2-enoyl)piperazin-2-yl)acetonitrile]: 90 nM; for `CN1CCC[C@H]1COc1nc(N2CCN(C(=O)/C=C/CF)[C@@H](CC#N)C2)c2cnc(-c3cncc4cccc(Cl)c34)c(F)c2n1` [Example 90]: 26 nM. The same measure for `C=C(F)C(=O)N1CCN(c2nc(OC[C@H]3CN(C)C[C@H]3F)nc3c(F)c(-c4cccc5ccc(F)c(Cl)c45)ncc23)C[C@@H]1CC#N` [Example 193]: 67 nM.

As to `C=C(F)C(=O)N1CCN(c2nc(OC[C@@H]3CCCN3C3CC3)nc3c(F)c(-c4cccc5ccc(F)c(Cl)c45)ncc23)C[C@@H]1CC#N` [Example 209], the IC50 amounted to 46 nM. The compound `C=CC(=O)N1CCCC12CCN(c1ncnc3c(F)c(-c4cccc5ccc(F)c(Cl)c45)ncc13)C2` (stereo not shown) [Example 233] registered an IC50 of 10000 nM. The same measure for `O=C(/C=C/CF)N1CC[C@@H]2[C@H]1CN2c1ncnc2c(F)c(-c3cccc4ccc(F)c(Cl)c34)ncc12` [Example 221]: 1930 nM; for `C=CC(=O)N1CC[C@@H]2[C@H]1CN2c1nc(C)nc2c(F)c(-c3cccc4ccc(F)c(Cl)c34)ncc12` [Example 238]: 379 nM; for `C=C(F)C(=O)N1CCN(c2nc(OC[C@@H]3CCCN3C)nc3c(F)c(-c4cccc5ccc(F)c(C)c45)ncc23)C[C@@H]1CC#N` [Example 86]: 14 nM. The same measure for `C=CC(=O)N1CC[C@@H]2[C@H]1CN2c1nc(OC[C@@H]2CC(F)(F)CN2C)nc2c(F)c(-c3cccc4ccc(F)c(Cl)c34)ncc12` [Example 262]: 114 nM; for `C#Cc1cccc2cccc(-c3ncc4c(N5CCN(C(=O)C=C)CC5)ncnc4c3F)c12` [Example 214, 1-(4-(7-(8-ethynylnaphthalen-1-yl)-8-fluoropyrido[4,3-d]pyrimidin-4-yl)piperazin-1-yl)prop-2-en-1-one]: 2110 nM. The same measure for `C=C(F)C(=O)N1CCN(c2ncnc3c(F)c(-c4cc(O)cc5ccccc45)ncc23)C[C@@H]1CC#N` [Example 162]: 590 nM; for `C=CC(=O)N1C[C@H](C)N(c2ncnc3c(F)c(-c4cccc5ccc(F)c(Cl)c45)ncc23)[C@@H](C)C1` [Example 148]: 6280 nM; for `C=C(F)C(=O)N1CCN(c2nc(OCC34CCCN3CCC4)nc3c(F)c(-c4cccc5ccc(F)c(Cl)c45)ncc23)C[C@@H]1CC#N` [Example 114]: 2 nM. `C=C(F)C(=O)N1CCN(c2nc(OC[C@@H]3C[C@@H](OC)CN3C)nc3c(F)c(-c4cncc5cccc(Cl)c45)ncc23)C[C@@H]1CC#N` [Example 56, 2-[(2S)-4-[7-(5-chloro-4-isoquinolyl)-8-fluoro-2-[[(2S,4R)-4-methoxy-1-methyl-pyrrolidin-2-yl]methoxy]pyrido[4,3-d]pyrimidin-4-yl]-1-(2-fluoroprop-2-enoyl)piperazin-2-yl]acetonitrile] displayed an IC50 of 28 nM.

`C#Cc1cccc2cccc(-c3ncc4c(N5C[C@@H]6[C@H]5CCN6C(=O)C=C)nc(N5CC(N(C)C)C5)nc4c3F)c12` [Example 298]: half-maximal inhibition (IC50) required 24 nM.

`C=CC(=O)N1CC[C@@H]2[C@H]1[C@H](C)N2c1ncnc2c(F)c(-c3cccc4ccc(F)c(Cl)c34)ncc12` [Example 280] gave an IC50 of 90 nM. The result for `Cc1cccc2cccc(-c3ncc4c(N5CCN(C(=O)/C=C/CF)[C@@H](CC#N)C5)nc(OC[C@@H]5CCCN5C)nc4c3F)c12` [Example 12, 2-[(2S)-1-[(E)-4-fluorobut-2-enoyl]-4-[8-fluoro-7-(8-methyl-1-naphthyl)-2-[[(2S)-1-methylpyrrolidin-2-yl]methoxy]pyrido[4,3-d]pyrimidin-4-yl]piperazin-2-yl]acetonitrile] reads 31 nM; that for `C=CC(=O)N1CCN(c2ncnc3c(F)c(-c4cccc5cccc(C)c45)ncc23)C[C@@H]1CC#N` [Example 41, 2-[(2S)-4-[8-fluoro-7-(8-methyl-1-naphthyl)pyrido[4,3-d]pyrimidin-4-yl]-1-prop-2-enoyl-piperazin-2-yl]acetonitrile], 216 nM. The same measure for `C=CC(=O)N1CC[C@@H]2[C@H]1CN2c1nc(OC2CC2)nc2c(F)c(-c3cccc4ccc(F)c(Cl)c34)ncc12` [Example 272]: 1470 nM.
